A value given as a limit tells only on which side of the number the result lay.

In this test the test system is Myotonic Dystrophy 1 affected patient fibroblasts (Coriel GM04602; 1600 CTG repeats). Kind of test: DM1 foci reduction assay (EC50 assay; CAG10-Cy3 FISH, foci per nucleus). In kind it is cell-based. Conditions: Homo sapiens, Fibroblast; DM1 patient fibroblasts, 48 h treatment, foci per nucleus; read-out: DM1 EC50, 48 h. As to the method: DM1 Foci Reduction Assay Methods
Myotonic Dystrophy 1 affected patient fibroblasts (Coriel GM04602; 1600 CTG repeats) and wild type fibroblasts (Coriell GM07492; control line) were cultured separately in Gibco DMEM (1×)+4.5 g/L D-Glucose+L-Glutamine+[…] Sodium Pyruvate, supplemented with 10% FBS and 1× Pen/Strep. Cells were maintained in an incubator at 37° C. and 5% CO2 with media refreshed every 48-72 hours.
At 90-95% confluency, both cell lines were harvested using Trypl-E then pelleted at 500×g for 5 minutes and were resuspended in fresh media. DM1 fibroblasts were seeded in Agilent 96 well black plates at a density of 5,000 cells/well in 200 μL media; and 8 wells were reserved for control fibroblasts. Plates were returned to incubator for 24 hours at 37° C. and 5% CO2.
Compounds were diluted from 10 mM stock to 1 mM in DMSO and then diluted once more to 6 μM (2× concentration) in media. Media was removed from all plates and cells were replenished with 100 μL media. Cells were treated in 8-point dose response, 1:3 fold dilution, 3 μM top dose via addition of 100 μL of 6 μM (2× concentration) compound to the 100 μL media with cells. Plates were returned to incubator for 48 hours at 37° C. and 5% CO2.
Following treatment, compounds were removed, and plates were washed with PBS, then cells were fixed in 75 μL 4% PFA solution for 20 minutes at room temperature. Plates were washed twice with PBS and twice with cold 70% ethanol before permeabilization with 250 μL cold 70% ethanol for 24-72 hours at −20° C.
After permeabilization, plates were washed once with a 30% formamide and 2×SSC buffer and rehydrated in that buffer for 15 minutes at room temperature. Cells were incubated overnight at 37° C. in 75 μL of a hybridization solution containing 30% formamide, 2×SSC, 25 mg/mL dextran sulfate, 2.5 mg/mL BSA, 0.2 μg/mL Herring sperm DNA, 2 mM vanadyl-ribonucleoside complex, and 5 nM CAG10-Cy3 probe.
Plates were washed once with 30% formamide in 2×SSC buffer, then twice with the buffer for 30 minutes at 37° C., 300 RPM in an incubating plate shaker. Cells were stained with 75 μL of 2.5 μg/mL DAPI in PBS for 5 minutes at room temperature. Plates were then washed twice with PBS and stored in 250 μL PBS. Plates were sealed with adhesive foil and wiped down with 70% ethanol.
Cells were imaged on a Cytation5 with a 20× objective sampling from 4 areas of each well. Nuclei were captured under DAPI channel and foci under RFP channel. Plates were analyzed on an average foci per nucleus per well basis.
As for `CCN(CC)CCCC[C@H](NC(C)=O)C(=O)NCCOCCOCCOCCNC(=O)CCNC(=O)c1nc(NC(=O)c2cc(NC(=O)CCNC(=O)c3nc(NC(=O)CCCNC(=O)c4cc(NC(=O)c5nc(NC(=O)CCNC(=O)c6cc(NC(=O)c7nccn7C)cn6C)cn5C)cn4C)cn3C)cn2C)cn1C` [Compound B-86], the 50% effective concentration (EC50) was over 1000 nM.

Turning to `CCN(CC)CCCC[C@H](NC(=O)C(C)C)C(=O)NCCOCCOCCOCCOCCOCCNC(=O)CCNC(=O)c1nc(NC(=O)c2cc(NC(=O)CCNC(=O)c3nc(NC(=O)CCCNC(=O)c4cc(NC(=O)c5nc(NC(=O)CCNC(=O)c6cc(NC(=O)c7nccn7C)cn6C)cn5C)cn4C)cn3C)cn2C)cn1C` [Compound B-89], the EC50 was over 1000 nM. With `CCN(CC)CCCC[C@H](NC(=O)c1ccccc1)C(=O)NCCOCCOCCOCCOCCOCCNC(=O)CCNC(=O)c1nc(NC(=O)c2cc(NC(=O)CCNC(=O)c3nc(NC(=O)CCCNC(=O)c4cc(NC(=O)c5nc(NC(=O)CCNC(=O)c6cc(NC(=O)c7nccn7C)cn6C)cn5C)cn4C)cn3C)cn2C)cn1C` [Compound B-91], the EC50 lay within 500 to 1000 nM. `CCN(CC)CCCC[C@H](NC(=O)c1ccncc1)C(=O)NCCOCCOCCOCCOCCOCCNC(=O)CCNC(=O)c1nc(NC(=O)c2cc(NC(=O)CCNC(=O)c3nc(NC(=O)CCCNC(=O)c4cc(NC(=O)c5nc(NC(=O)CCNC(=O)c6cc(NC(=O)c7nccn7C)cn6C)cn5C)cn4C)cn3C)cn2C)cn1C` [Compound B-93]: the EC50 is over 1000 nM. For `CCN(CC)CCCC[C@H](NC(=O)C1CCN(C)CC1)C(=O)NCCOCCOCCOCCOCCOCCNC(=O)CCNC(=O)c1nc(NC(=O)c2cc(NC(=O)CCNC(=O)c3nc(NC(=O)CCCNC(=O)c4cc(NC(=O)c5nc(NC(=O)CCNC(=O)c6cc(NC(=O)c7nccn7C)cn6C)cn5C)cn4C)cn3C)cn2C)cn1C` [Compound B-96] the value was 100 to 500 nM; for `CCN(CC)CCCC[C@@H](NC(C)=O)C(=O)NCCOCCOCCNC(=O)CCNC(=O)c1nc(NC(=O)CCNC(=O)c2cc(NC(=O)c3nc(NC(=O)CCCNC(=O)c4cc(NC(=O)c5nc(NC(=O)CCNC(=O)c6cc(NC(C)c7nccn7C)cn6C)cn5C)cn4C)cn3C)cn2C)cn1C` (stereo partly drawn) [Compound B-97], 100 to 500 nM; for `CCN(CC)CCCC[C@@H](NC(C)=O)C(=O)NCCNC(=O)CCNC(=O)c1nc(NC(=O)CCNC(=O)c2cc(NC(=O)c3nc(NC(=O)CCCNC(=O)c4cc(NC(=O)c5nc(NC(=O)CCNC(=O)c6cc(NC(C)c7nccn7C)cn6C)cn5C)cn4C)cn3C)cn2C)cn1C` (stereo partly drawn) [Compound B-98], over 1000 nM. For `CCN(CC)CCCC[C@@H](NC(=O)C1CCNCC1)C(=O)NCCOCCOCCOCCOCCOCCNC(=O)CCNC(=O)c1nc(NC(=O)c2cc(NC(=O)CCNC(=O)c3nc(NC(=O)CCCNC(=O)c4cc(NC(=O)c5nc(NC(=O)CCNC(=O)c6cc(NC(=O)c7nccn7C)cn6C)cn5C)cn4C)cn3C)cn2C)cn1C` [Compound B-101] the value was over 1000 nM; for `CCN(CC)CCCC[C@@H](NC(C)=O)C(=O)NCCOCCOCCNC(=O)CCNC(=O)c1nc(NC(=O)c2cc(NC(=O)CCNC(=O)c3nc(NC(=O)CCCNC(=O)c4cc(NC(=O)c5nc(NC(=O)CCNC(=O)c6cc(NC(=O)c7nccn7C)cn6C)cn5C)cn4C)cn3C)cn2C)cn1C` [Compound B-102], 500 to 1000 nM. The same measure for `CCN(CC)CCCC[C@@H](NC(C)=O)C(=O)NCCNC(=O)CCNC(=O)c1nc(NC(=O)c2cc(NC(=O)CCNC(=O)c3nc(NC(=O)CCCNC(=O)c4cc(NC(=O)c5nc(NC(=O)CCNC(=O)c6cc(NC(=O)c7nccn7C)cn6C)cn5C)cn4C)cn3C)cn2C)cn1C` [Compound B-103]: over 1000 nM; for `CCCN(CCC)C(=O)c1nc(NC(=O)c2cc(NC(=O)CCNC(=O)c3nc(NC(=O)CCCNC(=O)c4cc(NC(=O)c5nc(NC(=O)CCNC(=O)c6cc(NC(=O)c7nccn7C)cn6C)cn5C)cn4C)cn3C)cn2C)cn1C` [Compound B-104]: over 1000 nM.

Consider `Cn1cc(NC(=O)c2nc(NC(=O)CCNC(=O)c3cc(NC(=O)c4nccn4C)cn3C)cn2C)cc1C(=O)NCCCC(=O)Nc1cn(C)c(C(=O)NCCC(=O)Nc2cc(C(=O)Nc3cn(C)c(C(=O)N4CCC(N5CCNCC5)CC4)n3)n(C)c2)n1` [Compound B-106], for which the half-maximal effective concentration (EC50) was over 1000 nM. For `Cn1cc(NC(=O)c2nc(NC(=O)CCNC(=O)c3cc(NC(=O)c4nccn4C)cn3C)cn2C)cc1C(=O)NCCCC(=O)Nc1cn(C)c(C(=O)NCCC(=O)Nc2cc(C(=O)Nc3cn(C)c(C(=O)NCCC(=O)NCC#N)n3)n(C)c2)n1` [Compound B-112] the value was 500 to 1000 nM; for `Cn1cc(NC(=O)c2nc(NC(=O)CCNC(=O)c3cc(NC(=O)c4nccn4C)cn3C)cn2C)cc1C(=O)NCCCC(=O)Nc1cn(C)c(C(=O)NCCC(=O)Nc2cc(C(=O)Nc3cn(C)c(C(=O)NCCC(=O)N4CCN(CC5CCNCC5)CC4)n3)n(C)c2)n1` [Compound B-114], 500 to 1000 nM.

For the molecule `CN1CCC(CN2CCN(C(=O)CCNC(=O)c3nc(NC(=O)c4cc(NC(=O)CCNC(=O)c5nc(NC(=O)CCCNC(=O)c6cc(NC(=O)c7nc(NC(=O)CCNC(=O)c8cc(NC(=O)c9nccn9C)cn8C)cn7C)cn6C)cn5C)cn4C)cn3C)CC2)CC1` [Compound B-116], the EC50 was over 1000 nM. For `CN1CCN(CC2CCN(C(=O)CCNC(=O)c3nc(NC(=O)c4cc(NC(=O)CCNC(=O)c5nc(NC(=O)CCCNC(=O)c6cc(NC(=O)c7nc(NC(=O)CCNC(=O)c8cc(NC(=O)c9nccn9C)cn8C)cn7C)cn6C)cn5C)cn4C)cn3C)CC2)CC1` [Compound B-129] the value was 100 to 500 nM. The same measure for `CC(=O)N1CCN(C2CCN(C(=O)CCNC(=O)c3nc(NC(=O)c4cc(NC(=O)CCNC(=O)c5nc(NC(=O)CCCNC(=O)c6cc(NC(=O)c7nc(NC(=O)CCNC(=O)c8cc(NC(=O)c9nccn9C)cn8C)cn7C)cn6C)cn5C)cn4C)cn3C)CC2)CC1` [Compound B-130]: 100 to 500 nM; for `CN(C)c1ccc(C#CC#CCNC(=O)CCNC(=O)c2nc(NC(=O)c3cc(NC(=O)CCNC(=O)c4nc(NC(=O)CCCNC(=O)c5cc(NC(=O)c6nc(NC(=O)CCNC(=O)c7cc(NC(=O)c8nccn8C)cn7C)cn6C)cn5C)cn4C)cn3C)cn2C)cc1` [Compound B-133]: over 1000 nM; for `Cn1cc(NC(=O)c2nc(NC(=O)CCNC(=O)c3cc(NC(=O)c4nccn4C)cn3C)cn2C)cc1C(=O)NCCCC(=O)Nc1cn(C)c(C(=O)NCCC(=O)Nc2cc(C(=O)Nc3cn(C)c(C(=O)NCCC(=O)NCC#CC#CC4CCNCC4)n3)n(C)c2)n1` [Compound B-137, 1-methyl-4-(3-{[1-methyl-4-(1-methylimidazole-2-amido)pyrrol-2-yl]formamido}propanamido)-N-(1-methyl-5-{[3-({1-methyl-2-[(2-{[1-methyl-5-({1-methyl-2-[(2-{[5-(piperidin-4-yl)penta-2,4-diyn-1-yl]carbamoyl}ethyl)carbamoyl]imidazol-4-yl}carbamoyl)pyrrol-3-yl]carbamoyl}ethyl)carbamoyl]imidazol-4-yl}carbamoyl)propyl]carbamoyl}pyrrol-3-yl)imidazole-2-carboxamide]: over 1000 nM.

`CN1CCC(C#CC#CCNC(=O)CCNC(=O)c2nc(NC(=O)c3cc(NC(=O)CCNC(=O)c4nc(NC(=O)CCCNC(=O)c5cc(NC(=O)c6nc(NC(=O)CCNC(=O)c7cc(NC(=O)c8nccn8C)cn7C)cn6C)cn5C)cn4C)cn3C)cn2C)CC1` [Compound B-138]: the EC50 is over 1000 nM.

As to `CN(C)CC#CC#Cc1ccc(NC(=O)CCNC(=O)c2nc(NC(=O)c3cc(NC(=O)CCNC(=O)c4nc(NC(=O)CCCNC(=O)c5cc(NC(=O)c6nc(NC(=O)CCNC(=O)c7cc(NC(=O)c8nccn8C)cn7C)cn6C)cn5C)cn4C)cn3C)cn2C)cc1` [Compound B-139], the EC50 is over 1000 nM.

As to `Cn1cc(NC(=O)c2nc(NC(=O)CCNC(=O)c3cc(NC(=O)c4nccn4C)cn3C)cn2C)cc1C(=O)NCCCC(=O)Nc1cn(C)c(C(=O)NCCC(=O)Nc2cc(C(=O)Nc3cn(C)c(C(=O)NCCC(=O)NC4CCNCC4)n3)n(C)c2)n1` [Compound B-140], the EC50 is over 1000 nM. The same measure for `CC(=O)N1CCC(NC(=O)CCNC(=O)c2nc(NC(=O)c3cc(NC(=O)CCNC(=O)c4nc(NC(=O)CCCNC(=O)c5cc(NC(=O)c6nc(NC(=O)CCNC(=O)c7cc(NC(=O)c8nccn8C)cn7C)cn6C)cn5C)cn4C)cn3C)cn2C)CC1` [Compound B-141]: over 1000 nM; for `CCN(CC)CCCC[C@@H](NC(C)=O)C(=O)Nc1ccc(OCCOCCOCCOCCOCCOCCOCCNC(=O)CCNC(=O)c2nc(NC(=O)c3cc(NC(=O)CCNC(=O)c4nc(NC(=O)CCCNC(=O)c5cc(NC(=O)c6nc(NC(=O)CCNC(=O)c7cc(NC(=O)c8nccn8C)cn7C)cn6C)cn5C)cn4C)cn3C)cn2C)cc1` [Compound B-145]: 500 to 1000 nM.

The term EC50 denotes the concentration at which the effect is half-maximal.

Values taken from patent US20250368628A1, “METHODS AND COMPOUNDS FOR MODULATING INHERITED GENETIC DISEASES” (Design Therapeutics, Inc., priority 2022, published 2025).
